{"source": "patent US7977317B2", "about": "“Compositions and methods for modulating blood-brain barrier transport” (Raptor Pharmaceutical Inc., priority 2001, dated 2011)", "key": {"[1]": {"test_system": "RBE4 cells", "assay": "Competition of [125I]-p97 binding on rat brain endothelial cells (RBE4)", "conditions": "competitor 10 micromolar, 2 hrs at 4° C. (FIG. 4)", "description": "FIG. 4. Binding of p97 on rat brain endothelial cells. Binding p97 was performed with RBE4 that were pre-incubated 2 hrs in Ringer-Hepes. For the binding experiments, cells in 24-well microplates were incubated for 2 h at 4° C. in Ringer/Hepes in the presence of [^125I]-p97 (25 nM) and 10 micromolar concentrations of cold-p97, transferrin or lactoferin, respectively. At the end of the incubation, the cells were gently washed at 4° C. three times with 4 ml of cold-PBS. RBE4 cells were then lysed with Triton X-100 and the associated radioactivity of with cell lysates was determined.\nRBE4 cells were grown in monolayers in 24 wells plastic tissue culture flasks at 37° C. under 5% CO2 in minimum essential medium Alpha and Ham's F10 (1:1) supplemented with 10% heat inactivated fetal bovine serum. For p97 binding experiments, RBE4 cells were pre-incubated at 37° C. for 2 hrs in Ringer/Hepes. ^125I-p97 in 200 μl of Ringer/Hepes was added to RBE4 cells for 2 hrs at 4° C. in the presence or absence of high concentration of cold-p97, human holo-transferrin or human lactoferrin. After the incubation, the cells were washed 4 times with PBS and the ^125I-p97 associated with the cells was measured."}, "[2]": {"test_system": "bovine brain capillary endothelial cell monolayers", "assay": "Competition of [125I]-p97 binding on bovine brain capillary endothelial cell monolayers", "conditions": "[125I]-p97 25 nM, 2 h at 4° C., competitor 7.5 micromolar (FIG. 3)", "description": "FIG. 3. Binding of p97 on bovine brain capillary endothelial cell monolayers. Binding p97 was performed with BBCECs that were pre-incubated 2 hrs in Ringer-Hepes to avoid any interference from the astrocytes. For the binding experiments, cells were incubated for 2 h at 4° C. in Ringer/Hepes in the presence of [^125I]-p97 (25 nM) and 7.5 micromolar concentrations of cold-p97, transferrin or lactoferrin, respectively. At the end of the incubation, the filters were gently washed at 4° C. three times with 4 ml of cold-PBS. Then the associated radioactivity of endothelial cells was determined by removing the membrane of the culture insert and counting it in a gamma counter.\nB. Binding studies of p97. Binding of p97 was performed with BBCECs and Rat Brain Endothelial Cells that were pre-incubated 2 hrs in Ringer/Hepes to avoid any interference from the astrocytes.\nFor the binding experiments, cells were incubated for 2 h at 4° C. in Ringer/Hepes in the presence of [^125I]-p97 (25 nM) and increasing concentrations of cold-p97 or high (7.5 micromolar) concentrations of transferrin or lactoferrin. At the end of the incubation, the filters were gently washed at 4° C. three times with 4 ml of cold-PBS. Then the associated radioactivity of endothelial cells was determined by removing the membrane of the culture insert and counting it in a gamma counter."}}}
{"substance": "transferrin: transferrin (Tf), iron-binding serum protein used as comparator and competitor", "values": [{"measurement": "Inhibition of [125I]-p97 binding to RBE4 cells", "setting": "[1]", "result": "does not"}, {"measurement": "Inhibition of [125I]-p97 binding to BBCECs", "setting": "[2]", "result": "did not block or reduce"}]}
